Results on nine compounds are retold here after US20240217989A1, “Heteroaryl Fluoroalkenes As DGK Inhibitors” (Incyte Corporation, priority 2022, published 2024).

The target in one test is T1, DGKα (Homo sapiens, UniProt P23743).
T1 construct: His; purchased Signal Chem D21-10BH
Put plainly: In vitro DGKα inhibition assay (ADP-Glo). The test is classed as biochemical. As to conditions: His-tagged human recombinant enzyme; 0.1 nM DGKα, 50 μM ATP, 20 μM DLG; 90 minute incubation; ADP-Glo luminescence. As for the experimental part: (§1) The DGKα and DGKζ biochemical reactions were performed using His-tagged human recombinant enzymes (Signal Chem, DGKα, #D21-10BH; DGKζ, #D30-10H)) and DLG (Dilauroyl-sn-glycerol) lipid substrate (Signal Chem, #D430-59). ADP-Glo assay was performed using ADP-Glo™ kinase Assay kit (Promega, #V9104). The reactions were carried out in assay buffer containing 40 mM Tris, pH 7.5, 0.1% CHAPS, 0.1% Prionex, 40 mM NaCl, 5 mM MgCl2, 1 mM CaCl2, and 1 mM DTT. DGKα reactions contained 0.1 nM DGKα, 50 μM ATP, and 20 μM DLG. And DGKζ reactions contained 0.4 nM DGKζ, 30 μM ATP, and 20 μM DLG. For compound inhibition studies, 40 nL test compound in DMSO was added to wells of white polystyrene plates in 384-well (Greiner, #784075) or 1536-well format (Greiner, #782075). Compounds were added with top concentration of 2 mM with 11 point, 3-fold dilution series. Enzyme solution (contains 2× DGK enzyme concentration in 1× assay buffer) was added to the plate in 2 μL/well volume, followed by 2 μL/well of substrate solution (contains 2× concentration of ATP and DLG substrate in 1× assay buffer). Plates were then centrifuged for 1 min at 1200 RPM and sealed or lidded. For 4 μL reaction volume, test compounds were therefore diluted 100× to final top concentration of 20 μM. After 90 minute incubation, reactions were quenched by addition of 2 μL/well Promega ADP-Glo Reagent, followed by centrifugation and lidding. After 60 min incubation, 2 μL/well Promega Kinase Detection Reagent was added, plates centrifuged, and incubated for 30 min. Plates were then read using Luminescence method on BMG PHERAstar FSX plate reader. Percent inhibition was calculated and IC50s were determined using 4-parameter fit in Genedata Screener. Labcyte Echo acoustic dispenser was used for compound addition, and Formulatrix Tempest liquid handler was used for all reagent dispenses.

Another test deals with DGKζ (Homo sapiens, UniProt Q13574). Put plainly: In vitro DGKζ inhibition assay (ADP-Glo). In kind it is biochemical. To be noted: His-tagged human recombinant enzyme; 0.4 nM DGKζ, 30 μM ATP, 20 μM DLG; 90 minute incubation; ADP-Glo luminescence. As for the experimental part:
as §1

pIC50: −log10 of the molar value.

T1 sequence (P23743 whole entry): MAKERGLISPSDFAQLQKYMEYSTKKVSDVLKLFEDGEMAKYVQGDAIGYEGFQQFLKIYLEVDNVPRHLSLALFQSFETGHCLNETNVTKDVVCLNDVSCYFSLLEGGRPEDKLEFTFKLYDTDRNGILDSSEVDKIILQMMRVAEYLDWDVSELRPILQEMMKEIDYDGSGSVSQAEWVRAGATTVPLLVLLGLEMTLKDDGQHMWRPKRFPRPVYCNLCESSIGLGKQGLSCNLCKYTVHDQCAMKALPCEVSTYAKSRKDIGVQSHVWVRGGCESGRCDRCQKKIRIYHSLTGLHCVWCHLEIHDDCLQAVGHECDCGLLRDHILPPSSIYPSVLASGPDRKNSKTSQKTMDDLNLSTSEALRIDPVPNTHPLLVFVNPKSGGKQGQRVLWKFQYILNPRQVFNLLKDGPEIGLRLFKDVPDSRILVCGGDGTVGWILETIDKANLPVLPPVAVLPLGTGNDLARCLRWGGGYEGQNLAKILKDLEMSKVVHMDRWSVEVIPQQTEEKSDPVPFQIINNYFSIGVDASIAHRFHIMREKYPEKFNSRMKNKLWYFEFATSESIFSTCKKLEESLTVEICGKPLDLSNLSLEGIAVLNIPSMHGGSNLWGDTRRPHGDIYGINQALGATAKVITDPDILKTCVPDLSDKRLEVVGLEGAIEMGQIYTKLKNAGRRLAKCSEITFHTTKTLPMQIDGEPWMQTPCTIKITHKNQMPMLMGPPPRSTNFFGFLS
DGKζ, sequence (Q13574 whole entry): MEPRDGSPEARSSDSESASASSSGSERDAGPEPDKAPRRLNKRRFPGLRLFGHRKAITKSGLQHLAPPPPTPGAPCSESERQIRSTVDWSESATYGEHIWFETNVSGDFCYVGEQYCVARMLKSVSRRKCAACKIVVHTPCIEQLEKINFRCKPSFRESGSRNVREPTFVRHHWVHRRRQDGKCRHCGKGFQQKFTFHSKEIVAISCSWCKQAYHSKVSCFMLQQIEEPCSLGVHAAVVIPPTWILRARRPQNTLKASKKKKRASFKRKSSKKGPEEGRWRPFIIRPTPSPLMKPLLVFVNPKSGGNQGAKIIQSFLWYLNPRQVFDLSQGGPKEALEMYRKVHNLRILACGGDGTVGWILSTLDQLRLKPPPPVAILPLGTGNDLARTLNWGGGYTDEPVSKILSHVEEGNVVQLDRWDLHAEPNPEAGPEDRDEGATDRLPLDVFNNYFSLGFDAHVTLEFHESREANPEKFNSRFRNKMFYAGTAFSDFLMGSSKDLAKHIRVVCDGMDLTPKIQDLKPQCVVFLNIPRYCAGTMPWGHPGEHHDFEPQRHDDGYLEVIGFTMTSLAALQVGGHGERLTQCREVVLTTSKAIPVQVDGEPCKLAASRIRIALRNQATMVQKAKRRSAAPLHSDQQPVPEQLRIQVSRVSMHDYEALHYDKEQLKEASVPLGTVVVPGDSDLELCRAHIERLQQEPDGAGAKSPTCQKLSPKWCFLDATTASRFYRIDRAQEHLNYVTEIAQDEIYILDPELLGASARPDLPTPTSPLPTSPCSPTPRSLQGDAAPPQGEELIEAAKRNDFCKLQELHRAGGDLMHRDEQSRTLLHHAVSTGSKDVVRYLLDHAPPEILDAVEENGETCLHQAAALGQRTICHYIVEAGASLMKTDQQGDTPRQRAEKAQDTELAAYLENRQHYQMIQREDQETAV

On to `F/C(=C\c1ccc(Oc2ccccc2F)c(C(F)(F)F)c1N1CCCC2(CCN(CC3CC3)CC2)C1)c1cncc(N2CCC(F)(F)C2)n1` [Example 59, (Z)-9-(Cyclopropylmethyl)-2-(6-(2-(6-(3,3-difluoropyrrolidin-1-yl)pyrazin-2-yl)-2-fluorovinyl)-3-(2-fluorophenoxy)-2-(trifluoromethyl)phenyl)-2,9-diazaspiro[5.5]undecane], for which the negative logarithm of the IC50 (pIC50) at DGKα and at DGKζ was at least 7.70 in each case.

Turning to `CCN1CCC2(CC1)CN(c1c(/C=C(\F)c3nccc(-c4ccnnc4)n3)ccc(Oc3ccccc3)c1C(F)(F)F)CCO2` [Example 24, (Z)-9-Ethyl-4-(6-(2-fluoro-2-(4-(pyridazin-4-yl)pyrimidin-2-yl)vinyl)-3-phenoxy-2-(trifluoromethyl)phenyl)-1-oxa-4,9-diazaspiro[5.5]undecane], the pIC50 on DGKα and on DGKζ was at least 7.70 each time.

As for `F/C(=C\c1ccc(OC2CCCC2)c(C(F)(F)F)c1N1CCCC2(CCN(CC3CC3)CC2)C1)c1nccc(-c2ccnnc2)n1` [Example 51, (Z)-2-(3-(Cyclopentyloxy)-6-(2-fluoro-2-(4-(pyridazin-4-yl)pyrimidin-2-yl)vinyl)-2-(trifluoromethyl)phenyl)-9-(cyclopropylmethyl)-2,9-diazaspiro[5.5]undecane], the pIC50 at DGKα and at DGKζ was at least 7.70 in each case.

Regarding `CCN1CCC2(CCCN(c3c(/C=C(\F)c4nccc(-c5ccnnc5)n4)ccc(OC4CC5CC(C5)C4)c3C(F)(F)F)C2)CC1` (stereo not drawn) [Example 54, (Z)-2-(3-(Bicyclo[3.1.1]heptan-3-yloxy)-6-(2-fluoro-2-(4-(pyridazin-4-yl)pyrimidin-2-yl)vinyl)-2-(trifluoromethyl)phenyl)-9-ethyl-2,9-diazaspiro[5.5]undecane], the pIC50 on DGKα and on DGKζ was at least 7.70 throughout.

Turning to `COc1cc(F)ccc1Oc1ccc(/C=C(\F)c2nncc(N3CCC(F)(F)C3)n2)c(N2CCC[C@@H](CN)C2)c1Cl` [Example 8, (S,Z)-(1-(2-Chloro-6-(2-(5-(3,3-difluoropyrrolidin-1-yl)-1,2,4-triazin-3-yl)-2-fluorovinyl)-3-(4-fluoro-2-methoxyphenoxy)phenyl)piperidin-3-yl)methanamine], the pIC50 at DGKα and at DGKζ was at least 7.70 throughout.

As for `F/C(=C\c1ccc(OC2CCC2)c(C(F)(F)F)c1N1CCCC2(CCN(CC3CC3)CC2)C1)c1nccc(-c2ccnnc2)n1` [Example 52, (Z)-2-(3-Cyclobutoxy-6-(2-fluoro-2-(4-(pyridazin-4-yl)pyrimidin-2-yl)vinyl)-2-(trifluoromethyl)phenyl)-9-(cyclopropylmethyl)-2,9-diazaspiro[5.5]undecane], the pIC50 at DGKα and on DGKζ was at least 7.70 throughout.

With `F/C(=C\c1ccc(Oc2ccccc2F)c(C(F)(F)F)c1N1CCCC2(CCN(CC3CC3)CC2)C1)c1cncc(N2CC(F)(F)C2)n1` [Example 57, (Z)-9-(Cyclopropylmethyl)-2-(6-(2-(6-(3,3-difluoroazetidin-1-yl)pyrazin-2-yl)-2-fluorovinyl)-3-(2-fluorophenoxy)-2-(trifluoromethyl)phenyl)-2,9-diazaspiro[5.5]undecane], the pIC50 on DGKα and at DGKζ was at least 7.70 each time.

Consider `COCCN1CCC2(CCCN(c3c(/C=C(\F)c4nccc(-c5ccnnc5)n4)ccc(Oc4ccccc4)c3C(F)(F)F)C2)CC1` [Example 31, (Z)-2-(6-(2-Fluoro-2-(4-(pyridazin-4-yl)pyrimidin-2-yl)vinyl)-3-phenoxy-2-(trifluoromethyl)phenyl)-9-(2-methoxyethyl)-2,9-diazaspiro[5.5]undecane], for which the pIC50 on DGKα and on DGKζ was at least 7.70 throughout.

As for `NC[C@@H]1CCCN(c2c(/C=C(\F)c3cc4nccnc4c(N4CC(F)(F)C4)n3)ccc(Oc3ccccc3F)c2C(F)(F)F)C1` [Example 1, (S,Z)-(1-(6-(2-(5-(3,3-Difluoroazetidin-1-yl)pyrido[3,4-b]pyrazin-7-yl)-2-fluorovinyl)-3-(2-fluorophenoxy)-2-(trifluoromethyl)phenyl)piperidin-3-yl)methanamine], the pIC50 on DGKα and on DGKζ was 6.70 to 7.70 each time.
